Data published in publication PMC9940649, “Phytochemical Comparison of Medicinal Cannabis Extracts and Study of Their CYP-Mediated Interactions with Coumarinic Oral Anticoagulants” (Medical Cannabis and Cannabinoids, 2023).
Like-named read-outs stand apart in the source and are kept apart here.

Legend:
[1] = target: T1, CYP2C9 (Homo sapiens, UniProt P11712); experiment: in vitro; settings: both, microsomes, pH 7.4
Procedure: (§1) Briefly, 96-well incubation plates were prepared by adding inhibitors, substrates, and extracts (all dissolved in ethanol) to the respective wells. The 96-well plates were then placed on a thermoshaker (37°C, 500 rpm) until full evaporation of the solvent. […] HLM were thawed on ice, diluted in 100 mM phosphate buffer (pH 7.4) (final concentration 0.2 mg/mL), and added to the incubation plate that was prepared with the inhibitors and substrates. For preincubation, the plates were shaken at 500 rpm on an orbital shaker for 15 min at 37°C. […] The formation of hydroxylated metabolites was followed using UHPLC-MS/MS quantification with electrospray ionization in positive mode, as described in online supplementary material 2.
(§2) GraphPad Prism, version 9.0.1, was used for fitting of IC50 curves (inhibitor vs. normalized response, variable slope).

[2] = target: T1, CYP2C9; experiment: in vitro; settings: both, microsomes, pH 7.4; remark: listed apart in the source
Procedure: as §1, §2

[3] = at 0.5 mg/mL protein concentration; cited from earlier work
[4] = target: T1, CYP2C9; experiment: CYP inhibition assay in pooled HLM, specific substrate tolbutamide
Procedure: as §1, §2

[5] = target: T2, CYP3A4 (Homo sapiens, UniProt P08684); experiment: CYP inhibition assay in pooled HLM, specific substrate testosterone
T2 sequence (P08684 2-503 limits assumed): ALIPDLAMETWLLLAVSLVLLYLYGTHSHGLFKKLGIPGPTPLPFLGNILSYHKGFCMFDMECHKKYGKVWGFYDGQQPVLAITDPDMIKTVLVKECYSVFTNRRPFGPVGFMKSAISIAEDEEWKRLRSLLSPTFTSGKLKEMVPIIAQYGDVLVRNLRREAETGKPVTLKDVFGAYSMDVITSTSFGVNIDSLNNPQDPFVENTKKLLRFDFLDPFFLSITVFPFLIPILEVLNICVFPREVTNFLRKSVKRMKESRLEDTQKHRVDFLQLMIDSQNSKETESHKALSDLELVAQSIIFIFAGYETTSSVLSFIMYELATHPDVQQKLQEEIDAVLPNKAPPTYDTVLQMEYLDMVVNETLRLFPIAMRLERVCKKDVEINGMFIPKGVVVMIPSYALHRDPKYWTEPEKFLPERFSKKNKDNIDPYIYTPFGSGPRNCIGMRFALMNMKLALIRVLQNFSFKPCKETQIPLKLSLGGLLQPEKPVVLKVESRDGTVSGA
Procedure: as §1, §2

[6] = target: T2, CYP3A4; settings: read-out: Literature IC50 in pooled HLM; substrate testosterone; ref PMID 32587099; cited from earlier work
[7] = target: T1, CYP2C9; settings: read-out: Literature Ki in pooled HLM; substrate warfarin; ref PMID 21356216; cited from earlier work

T1 sequence (P11712 whole entry): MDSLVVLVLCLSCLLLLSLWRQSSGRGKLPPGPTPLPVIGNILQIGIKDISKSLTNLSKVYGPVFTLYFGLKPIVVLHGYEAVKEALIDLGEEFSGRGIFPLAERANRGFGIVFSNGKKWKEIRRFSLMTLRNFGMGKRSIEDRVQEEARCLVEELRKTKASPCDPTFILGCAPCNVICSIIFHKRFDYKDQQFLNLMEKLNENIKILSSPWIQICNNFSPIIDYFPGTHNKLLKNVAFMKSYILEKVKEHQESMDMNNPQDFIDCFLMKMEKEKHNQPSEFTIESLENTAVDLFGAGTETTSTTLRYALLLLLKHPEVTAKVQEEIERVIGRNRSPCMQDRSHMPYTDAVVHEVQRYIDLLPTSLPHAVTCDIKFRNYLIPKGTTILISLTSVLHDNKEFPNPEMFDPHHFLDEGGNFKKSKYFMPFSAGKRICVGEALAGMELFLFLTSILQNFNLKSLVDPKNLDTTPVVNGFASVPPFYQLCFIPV

Row | SMILES | IC50 at 15 min [1] [µM] | IC50 at 15 min [2] [µM] | fraction unbound [3] | IC50 [4] [nM] | IC50 [5] [µM] | IC50 [6] [µM] | Ki [7] [nM]
1 | C=C(C)[C@@H]1CCC(C)=C[C@H]1c1c(O)cc(CCCCC)cc1O [CBD (pure), cannabidiol] | > 100 | 47 | 0.12 |  |  |  | 
2 | CCCCCc1cc(O)c2c(c1)OC(C)(C)[C@@H]1CCC(C)=C[C@@H]21 [THC (pure), Δ9-tetrahydrocannabinol] | 73.3 | 6.9 | 0.05 | 81 | 23.6 | 26.1 ± 6.78 | 1500
